Experimental data published in PMC5026067, “Substrate Fragmentation for the Design of M. tuberculosis CYP121 Inhibitors” (Chemmedchem, 2016).

biological target: CYP124 (Mycobacterium tuberculosis, UniProt P9WPP3); experiment: UV/vis Soret shift; format: binding; conditions: 10 µM; […] ligand, […] DMSO; weak blue shift
Sequence (P9WPP3 whole entry): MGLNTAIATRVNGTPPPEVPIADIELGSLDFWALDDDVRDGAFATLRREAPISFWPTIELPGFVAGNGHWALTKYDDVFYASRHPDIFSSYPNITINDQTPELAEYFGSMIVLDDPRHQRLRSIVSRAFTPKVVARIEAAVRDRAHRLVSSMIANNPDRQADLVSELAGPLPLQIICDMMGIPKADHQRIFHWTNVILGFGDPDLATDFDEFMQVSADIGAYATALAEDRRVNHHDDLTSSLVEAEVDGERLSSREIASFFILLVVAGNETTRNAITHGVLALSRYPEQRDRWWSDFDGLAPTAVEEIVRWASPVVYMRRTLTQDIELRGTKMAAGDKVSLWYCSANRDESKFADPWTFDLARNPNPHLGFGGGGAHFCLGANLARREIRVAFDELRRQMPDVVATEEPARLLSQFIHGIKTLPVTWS

`NC(Cc1c[nH]c2ccc(Br)cc12)C(=O)SCCc1ccccc1` (racemic) [compound 31, compound 31 (5-bromo-tryptophan phenethyl-thioester)] was tested. Which CYP124 did it give?
Its CYP124 is −2 nm.

same assay, conditions: 100 µM; […] ligand, […] DMSO; weak blue shift

Which CYP124 does the source give for `N[C@H](Cc1c[nH]c2ccccc12)C(=O)NCCc1c[nH]c2ccccc12` [compound 9, acyclic cWW-9] here?
The CYP124 was −2 nm.

biological target: CYP142 (Mycobacterium tuberculosis, UniProt P9WPL5); experiment: UV/vis Soret shift; format: binding; conditions: 2000 µM; […] ligand, […] DMSO; type II
Sequence (P9WPL5 whole entry): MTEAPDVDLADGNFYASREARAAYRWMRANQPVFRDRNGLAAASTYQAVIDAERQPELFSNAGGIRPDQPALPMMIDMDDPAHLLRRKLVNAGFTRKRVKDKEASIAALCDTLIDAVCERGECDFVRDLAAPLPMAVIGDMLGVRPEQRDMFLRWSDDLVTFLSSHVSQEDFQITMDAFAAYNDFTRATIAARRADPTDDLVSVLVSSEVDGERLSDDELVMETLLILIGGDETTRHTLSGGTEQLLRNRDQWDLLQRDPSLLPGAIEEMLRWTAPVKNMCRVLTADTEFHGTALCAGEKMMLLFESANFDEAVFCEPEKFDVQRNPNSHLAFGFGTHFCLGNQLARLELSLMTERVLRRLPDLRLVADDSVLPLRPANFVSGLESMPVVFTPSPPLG
Source text: UV/vis Soret shift on CYP142

How did the CYP142 turn out when `COC(=O)[C@H](N)Cc1c[nH]c2ccccc12` [1a, D-tryptophan methyl ester] was run?
Its CYP142 is “+2 nm”.

biological target: T1, Mtb CYP121 (Mycobacterium tuberculosis, UniProt P9WPP7); experiment: UV/vis optical titration (Soret shift); format: binding; conditions: not given
T1 sequence (P9WPP7 whole entry): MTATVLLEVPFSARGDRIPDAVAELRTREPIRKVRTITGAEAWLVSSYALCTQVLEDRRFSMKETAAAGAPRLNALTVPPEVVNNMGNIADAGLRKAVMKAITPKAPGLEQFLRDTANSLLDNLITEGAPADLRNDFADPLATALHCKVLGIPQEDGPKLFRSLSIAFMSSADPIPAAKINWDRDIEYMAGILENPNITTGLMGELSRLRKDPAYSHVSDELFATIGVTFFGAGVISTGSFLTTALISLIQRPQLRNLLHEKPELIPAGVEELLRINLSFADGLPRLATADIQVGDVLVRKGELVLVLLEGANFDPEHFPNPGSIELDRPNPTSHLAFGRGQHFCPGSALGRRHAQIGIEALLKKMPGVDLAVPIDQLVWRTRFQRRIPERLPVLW
Source text: UV/vis optical titration (Soret shift) on Mtb CYP121

`N[C@H](Cc1c[nH]c2ccccc12)c1nc(-c2ccccc2)c[nH]1` [compound 14, imidazole 14] was tested. Which Kd did it give?
The Kd was 530 ± 100 µM.

same assay, conditions: read-out: K d [μM]^[b]

`NC(Cc1ccccc1Br)C(=O)SCCc1ccccc1` (stereo not shown) [compound 30, 2-bromophenylalanine derivative 30] was tested. Which Kd did it give?
Its Kd is 30 ± 3.8 µM.

`N[C@@H](Cc1c[nH]c2ccccc12)C(=O)OCCc1ccccc1` [compound 3, L-phenethyl ester 3] was tested. Which Kd did it give?
The Kd was 200 ± 19 µM.

`N[C@H](Cc1c[nH]c2ccccc12)c1nc(-c2ccccc2)cs1` [compound 13, thiazole 13] was tested. Which Kd did it give?
The Kd was 44 ± 3.6 µM.

For `NC(Cc1c[nH]c2ncccc12)C(=O)SCCc1ccccc1` (racemic) [compound 27, aza-tryptophan analogue 27], which Kd is on record?
Its Kd is 110 ± 9.1 µM.

With `N[C@H](Cc1c[nH]c2ccccc12)C(=O)SCC1CC(c2ccccc2)=NO1` (stereo partly shown) [compound 25, phenyl-isoxazole-substituted compound 25] as the compound, how does the Kd read?
Its Kd is 35 ± 4.2 µM.

For `NC(Cc1c[nH]c2ccc(Br)cc12)c1nc(-c2ccccc2)cs1` (racemic) [compound 32, compound 32 (5-bromo-tryptophan phenyl-thiazole)], which Kd is on record?
Its Kd is 32 ± 2.5 µM.

`COC(=O)[C@H](N)Cc1c[nH]c2ccccc12` [1a, D-tryptophan methyl ester] was tested. Which Kd did it give?
The Kd was 840 ± 88 µM.

For `N[C@H](Cc1c[nH]c2ccccc12)C(=O)NCCc1ccccc1` [compound 8, acyclic cWF-8], which Kd is on record?
Its Kd is 270 ± 22 µM.

For `N[C@H](Cc1c[nH]c2ccccc12)C(=O)SCCc1c[nH]c2ccccc12` [compound 17, indole-substituted thioester 17], which Kd is on record?
Its Kd is 45 ± 4.4 µM.

With `N[C@H](Cc1c[nH]c2ccccc12)c1nc(Cc2c[nH]c3ccccc23)cs1` [compound 18, indole-substituted thiazole 18] as the compound, how does the Kd read?
The Kd was 52 ± 3.1 µM.

Which Kd does the source give for `N[C@H](Cc1c[nH]c2ccccc12)C(=O)NCCc1ccc(O)cc1` [compound 7, acyclic cYW-7] here?
The Kd was 260 ± 14 µM.

Which Kd does the source give for `N[C@H](Cc1c[nH]c2ccccc12)C(=O)OCCc1ccccc1` [compound 2, phenethyl ester 2] here?
Its Kd is 200 ± 17 µM.

How did the Kd turn out when `NC(Cc1c[nH]c2ccc(O)cc12)C(=O)SCCc1ccccc1` (racemic) [compound 26, compound 26 (5-hydroxy indole)] was run?
The Kd was 130 ± 9.3 µM.

How did the Kd turn out when `N[C@H](Cc1c[nH]c2ccccc12)C(=S)NCCc1ccccc1` [compound 12, thioamide 12] was run?
Its Kd is 150 ± 18 µM.

Which Kd does the source give for `NC(Cc1c[nH]c2ccc(Br)cc12)C(=O)SCCc1ccccc1` (racemic) [compound 31, compound 31 (5-bromo-tryptophan phenethyl-thioester)] here?
Its Kd is 16 ± 2.4 µM.

Which Kd does the source give for `N[C@H](Cc1c[nH]c2ccccc12)C(=O)NCCc1c[nH]c2ccccc12` [compound 9, acyclic cWW-9] here?
The Kd was 110 ± 6 µM.

How did the Kd turn out when `N[C@H](Cc1c[nH]c2ccccc12)C(=O)OC/C=C/c1ccccc1` [compound 20, compound 20 (trans-alkene)] was run?
The Kd was 120 ± 21 µM.

biological target: T1, Mtb CYP121; experiment: thermal shift assay; format: binding; conditions: not given
Source text: thermal shift assay on Mtb CYP121

With `COC(=O)[C@H](N)Cc1ccc(O)cc1` [1b, D-tyrosine methyl ester] as the compound, how does the ΔTm at 5000 µM read?
The ΔTm at 5000 µM was 3 °C.
